Measurements reported in ChEMBL document CHEMBL4270617, “Design, synthesis, antimicrobial, antiquorum-sensing and antitumor evaluation of new series of pyrazolopyridine derivatives” (Eur J Med Chem, 2018).
Converted amounts (≈) assume the structure as drawn.

test system: Pseudomonas aeruginosa; experiment: Antibacterial activity against Pseudomonas aeruginosa PAO1 after 24 hrs by two-fold serial dilution method; assay type: functional; conditions: PAO1, 24 h

Compound | MIC
CCOC(=O)C1=C(N)Nc2[nH]nc(C)c2C1c1ccc(N(C)C)cc1 (centres undefined) | > 200 µg/mL
CCOC(=O)C1=C(N/C=N/c2ncc(-c3ccccc3)s2)Nc2[nH]nc(C)c2C1c1ccc(N(C)C)cc1 (centres undefined) | 474 µM
CCOC(=O)C1=C(N/C=N/c2ccc(C)cc2)Nc2[nH]nc(C)c2C1c1ccc(N(C)C)cc1 (centres undefined) | 2180 µM

test system: Ehrlich; experiment: Antitumor activity against mouse EAC cells allografted in Swiss mouse assessed as viable tumor cell count at 0.5 mg/mouse administered for 9 days (reference value: 77.41 10^6/ml); assay type: functional; conditions: not given

Compound | Activity [×10⁶ /ml]
CCOC(=O)C1=C(N)Nc2[nH]nc(C)c2C1c1ccc(N(C)C)cc1 (centres undefined) | 18.64
CCOC(=O)C1=C(N/C=N/c2ncc(-c3ccccc3)s2)Nc2[nH]nc(C)c2C1c1ccc(N(C)C)cc1 (centres undefined) | 48.56

test system: Aspergillus flavus; experiment: Antifungal activity against Aspergillus flavus 3375 after 48 hrs by two-fold serial dilution method; assay type: functional; conditions: Aspergillus flavus, 3375, 48 h

Compound | MIC
CCOC(=O)C1=C(N)Nc2[nH]nc(C)c2C1c1ccc(N(C)C)cc1 (centres undefined) | > 200 µg/mL
CCOC(=O)C1=C(N/C=N/c2ncc(-c3ccccc3)s2)Nc2[nH]nc(C)c2C1c1ccc(N(C)C)cc1 (centres undefined) | 3790 µM
CCOC(=O)C1=C(N/C=N/c2ccc(C)cc2)Nc2[nH]nc(C)c2C1c1ccc(N(C)C)cc1 (centres undefined) | 2180 µM

test system: Mus musculus; experiment: Toxicity in Swiss albino mouse implanted with mouse EAC cells assessed as RBC count at 0.5 mg/mouse administered for 9 days (reference value: 3.59 10^6/mm3); assay type: organism-based; conditions: in vivo, 216 h

Compound | Activity [×10⁶ /mm3]
CCOC(=O)C1=C(N)Nc2[nH]nc(C)c2C1c1ccc(N(C)C)cc1 (centres undefined) | 6.26
CCOC(=O)C1=C(N/C=N/c2ncc(-c3ccccc3)s2)Nc2[nH]nc(C)c2C1c1ccc(N(C)C)cc1 (centres undefined) | 4.85

test system: Mus musculus; experiment: Toxicity in Swiss albino mouse implanted with mouse EAC cells assessed as hemoglobin level at 0.5 mg/mouse administered for 9 days (reference value: 7.05 g/dl); assay type: organism-based; conditions: in vivo, 216 h

Compound | Activity [g/dL]
CCOC(=O)C1=C(N)Nc2[nH]nc(C)c2C1c1ccc(N(C)C)cc1 (centres undefined) | 14.15
CCOC(=O)C1=C(N/C=N/c2ncc(-c3ccccc3)s2)Nc2[nH]nc(C)c2C1c1ccc(N(C)C)cc1 (centres undefined) | 11.9

test system: WISH; experiment: Cytotoxicity against human WISH cells after 48 hrs by MTT assay; assay type: cell-based; conditions: not given

Compound | IC50 [µM]
CCOC(=O)C1=C(N)Nc2[nH]nc(C)c2C1c1ccc(N(C)C)cc1 (centres undefined) | 94.6
CCOC(=O)C1=C(N/C=N/c2ncc(-c3ccccc3)s2)Nc2[nH]nc(C)c2C1c1ccc(N(C)C)cc1 (centres undefined) | 29.5

test system: Ehrlich; experiment: Antitumor activity against mouse EAC cells allografted in Swiss mouse assessed as mean survival time at 0.5 mg/mouse administered for 9 days (reference value: 18 day); assay type: functional; conditions: not given

Compound | MSD [days]
CCOC(=O)C1=C(N)Nc2[nH]nc(C)c2C1c1ccc(N(C)C)cc1 (centres undefined) | 65
CCOC(=O)C1=C(N/C=N/c2ncc(-c3ccccc3)s2)Nc2[nH]nc(C)c2C1c1ccc(N(C)C)cc1 (centres undefined) | 34

test system: Aspergillus fumigatus; experiment: Antifungal activity against Aspergillus fumigatus 293 after 48 hrs by two-fold serial dilution method; assay type: functional; conditions: Aspergillus fumigatus, 293, 48 h

Compound | MIC
CCOC(=O)C1=C(N)Nc2[nH]nc(C)c2C1c1ccc(N(C)C)cc1 (centres undefined) | > 200 µg/mL
CCOC(=O)C1=C(N/C=N/c2ncc(-c3ccccc3)s2)Nc2[nH]nc(C)c2C1c1ccc(N(C)C)cc1 (centres undefined) | 3790 µM
CCOC(=O)C1=C(N/C=N/c2ccc(C)cc2)Nc2[nH]nc(C)c2C1c1ccc(N(C)C)cc1 (centres undefined) | 2180 µM

test system: Bacillus cereus; experiment: Antibacterial activity against Bacillus cereus UW 85 after 24 hrs by two-fold serial dilution method; assay type: functional; conditions: UW 85, 24 h

Compound | MIC
CCOC(=O)C1=C(N)Nc2[nH]nc(C)c2C1c1ccc(N(C)C)cc1 (centres undefined) | > 200 µg/mL
CCOC(=O)C1=C(N/C=N/c2ncc(-c3ccccc3)s2)Nc2[nH]nc(C)c2C1c1ccc(N(C)C)cc1 (centres undefined) | 59.2 µM
CCOC(=O)C1=C(N/C=N/c2ccc(C)cc2)Nc2[nH]nc(C)c2C1c1ccc(N(C)C)cc1 (centres undefined) | 136 µM

test system: Ehrlich; experiment: Antitumor activity against mouse EAC cells allografted in Swiss mouse assessed as increase in life span at 0.5 mg/mouse administered for 9 days relative to control; assay type: functional; conditions: not given

Compound | Activity [%]
CCOC(=O)C1=C(N)Nc2[nH]nc(C)c2C1c1ccc(N(C)C)cc1 (centres undefined) | 261.1
CCOC(=O)C1=C(N/C=N/c2ncc(-c3ccccc3)s2)Nc2[nH]nc(C)c2C1c1ccc(N(C)C)cc1 (centres undefined) | 88.9

test system: WI-38; experiment: Cytotoxicity against human W138 cells after 48 hrs by MTT assay; assay type: cell-based; conditions: WI-38, 48 h

Compound | IC50 [µM]
CCOC(=O)C1=C(N)Nc2[nH]nc(C)c2C1c1ccc(N(C)C)cc1 (centres undefined) | 84
CCOC(=O)C1=C(N/C=N/c2ncc(-c3ccccc3)s2)Nc2[nH]nc(C)c2C1c1ccc(N(C)C)cc1 (centres undefined) | 33.5

test system: Ehrlich; experiment: Antitumor activity against mouse EAC cells allografted in Swiss mouse assessed as tumor volume at 0.5 mg/mouse administered for 9 days (reference value: 10.15 mL); assay type: functional; conditions: not given

Compound | Activity [mL]
CCOC(=O)C1=C(N)Nc2[nH]nc(C)c2C1c1ccc(N(C)C)cc1 (centres undefined) | 1.05
CCOC(=O)C1=C(N/C=N/c2ncc(-c3ccccc3)s2)Nc2[nH]nc(C)c2C1c1ccc(N(C)C)cc1 (centres undefined) | 3.8

test system: HepG2; experiment: Antitumor activity against human HepG2 cells assessed as inhibition of cell proliferation after 48 hrs by MTT assay; assay type: functional, cell-based; conditions: HepG2, 48 h

Compound | IC50 [µM]
CCOC(=O)C1=C(N)Nc2[nH]nc(C)c2C1c1ccc(N(C)C)cc1 (centres undefined) | 4.24
CCOC(=O)C1=C(N/C=N/c2ncc(-c3ccccc3)s2)Nc2[nH]nc(C)c2C1c1ccc(N(C)C)cc1 (centres undefined) | 9.79
CCOC(=O)C1=C(N/C=N/c2ccc(C)cc2)Nc2[nH]nc(C)c2C1c1ccc(N(C)C)cc1 (centres undefined) | 44.4

test system: Staphylococcus aureus; experiment: Antibacterial activity against Staphylococcus aureus ATCC 29213 after 24 hrs by two-fold serial dilution method; assay type: functional; conditions: ATCC 29213, 24 h

Compound | MIC
CCOC(=O)C1=C(N)Nc2[nH]nc(C)c2C1c1ccc(N(C)C)cc1 (centres undefined) | > 200 µg/mL
CCOC(=O)C1=C(N/C=N/c2ncc(-c3ccccc3)s2)Nc2[nH]nc(C)c2C1c1ccc(N(C)C)cc1 (centres undefined) | 59.2 µM
CCOC(=O)C1=C(N/C=N/c2ccc(C)cc2)Nc2[nH]nc(C)c2C1c1ccc(N(C)C)cc1 (centres undefined) | 136 µM

test system: Candida albicans; experiment: Antifungal activity against Candida albicans after 48 hrs by two-fold serial dilution method; assay type: functional; conditions: not given

Compound | MIC
CCOC(=O)C1=C(N)Nc2[nH]nc(C)c2C1c1ccc(N(C)C)cc1 (centres undefined) | > 200 µg/mL
CCOC(=O)C1=C(N/C=N/c2ncc(-c3ccccc3)s2)Nc2[nH]nc(C)c2C1c1ccc(N(C)C)cc1 (centres undefined) | 1900 µM
CCOC(=O)C1=C(N/C=N/c2ccc(C)cc2)Nc2[nH]nc(C)c2C1c1ccc(N(C)C)cc1 (centres undefined) | > 200 µg/mL

test system: HeLa; experiment: Antitumor activity against human HeLa cells assessed as inhibition of cell proliferation after 48 hrs by MTT assay; assay type: functional, cell-based; conditions: read-out: IC50

Compound | IC50 [µM]
CCOC(=O)C1=C(N)Nc2[nH]nc(C)c2C1c1ccc(N(C)C)cc1 (centres undefined) | 6.22
CCOC(=O)C1=C(N/C=N/c2ncc(-c3ccccc3)s2)Nc2[nH]nc(C)c2C1c1ccc(N(C)C)cc1 (centres undefined) | 15.4
CCOC(=O)C1=C(N/C=N/c2ccc(C)cc2)Nc2[nH]nc(C)c2C1c1ccc(N(C)C)cc1 (centres undefined) | 43.2

test system: Chromobacterium violaceum; experiment: Inhibition of quorum sensing system in Chromobacterium violaceum ATCC 12472 assessed as diameter of violacein pigment inhibition at 5 mg/ml after 48 hrs; conditions: not given

Compound | diameter of the inhibition zone (DIZ) [mm]
CCOC(=O)C1=C(N)Nc2[nH]nc(C)c2C1c1ccc(N(C)C)cc1 (centres undefined) | < 2
CCOC(=O)C1=C(N/C=N/c2ncc(-c3ccccc3)s2)Nc2[nH]nc(C)c2C1c1ccc(N(C)C)cc1 (centres undefined) | 3
CCOC(=O)C1=C(N/C=N/c2ccc(C)cc2)Nc2[nH]nc(C)c2C1c1ccc(N(C)C)cc1 (centres undefined) | < 2

test system: MCF7; experiment: Antitumor activity against human MCF7 cells assessed as inhibition of cell proliferation after 48 hrs by MTT assay; assay type: functional, cell-based; conditions: MCF7, 48 h

Compound | IC50 [µM]
CCOC(=O)C1=C(N)Nc2[nH]nc(C)c2C1c1ccc(N(C)C)cc1 (centres undefined) | 5.06
CCOC(=O)C1=C(N/C=N/c2ncc(-c3ccccc3)s2)Nc2[nH]nc(C)c2C1c1ccc(N(C)C)cc1 (centres undefined) | 10.1
CCOC(=O)C1=C(N/C=N/c2ccc(C)cc2)Nc2[nH]nc(C)c2C1c1ccc(N(C)C)cc1 (centres undefined) | 50.5

molecular target: not listed separately; experiment: Displacement of methyl green from DNA (unknown origin) incubated in dark for 24 hrs; conditions: not given

Compound | IC50 [µM]
CCOC(=O)C1=C(N)Nc2[nH]nc(C)c2C1c1ccc(N(C)C)cc1 (centres undefined) | 32.4
CCOC(=O)C1=C(N/C=N/c2ncc(-c3ccccc3)s2)Nc2[nH]nc(C)c2C1c1ccc(N(C)C)cc1 (centres undefined) | 74.2
CCOC(=O)C1=C(N/C=N/c2ccc(C)cc2)Nc2[nH]nc(C)c2C1c1ccc(N(C)C)cc1 (centres undefined) | 76.4

test system: Mus musculus; experiment: Toxicity in Swiss albino mouse implanted with mouse EAC cells assessed as WBC count at 0.5 mg/mouse administered for 9 days (reference value: 20.53 10^3/mm3); assay type: organism-based; conditions: in vivo, 216 h

Compound | Activity [×10³ /mm3]
CCOC(=O)C1=C(N)Nc2[nH]nc(C)c2C1c1ccc(N(C)C)cc1 (centres undefined) | 6.38
CCOC(=O)C1=C(N/C=N/c2ncc(-c3ccccc3)s2)Nc2[nH]nc(C)c2C1c1ccc(N(C)C)cc1 (centres undefined) | 11.83

test system: Escherichia coli; experiment: Antibacterial activity against Escherichia coli ATCC 12435 after 24 hrs by two-fold serial dilution method; assay type: functional; conditions: ATCC 12435, 24 h

Compound | MIC [µM]
CCOC(=O)C1=C(N)Nc2[nH]nc(C)c2C1c1ccc(N(C)C)cc1 (centres undefined) | 683 (≈ 233 µg/mL)
CCOC(=O)C1=C(N/C=N/c2ncc(-c3ccccc3)s2)Nc2[nH]nc(C)c2C1c1ccc(N(C)C)cc1 (centres undefined) | 474 (≈ 250 µg/mL)
CCOC(=O)C1=C(N/C=N/c2ccc(C)cc2)Nc2[nH]nc(C)c2C1c1ccc(N(C)C)cc1 (centres undefined) | 2180 (≈ 1000 µg/mL)
